These results are taken from ChEMBL document CHEMBL1250507, “Novel indolylmaleimide acts as GSK-3beta inhibitor in human neural progenitor cells” (Bioorg Med Chem, 2010).

In assay [1] the target is T1, Glycogen synthase kinase-3 beta (Homo sapiens, UniProt P49841). As to conditions: ReNcell VM, at 3 µM.
Target sequence in this assay (P49841 whole entry, looked up): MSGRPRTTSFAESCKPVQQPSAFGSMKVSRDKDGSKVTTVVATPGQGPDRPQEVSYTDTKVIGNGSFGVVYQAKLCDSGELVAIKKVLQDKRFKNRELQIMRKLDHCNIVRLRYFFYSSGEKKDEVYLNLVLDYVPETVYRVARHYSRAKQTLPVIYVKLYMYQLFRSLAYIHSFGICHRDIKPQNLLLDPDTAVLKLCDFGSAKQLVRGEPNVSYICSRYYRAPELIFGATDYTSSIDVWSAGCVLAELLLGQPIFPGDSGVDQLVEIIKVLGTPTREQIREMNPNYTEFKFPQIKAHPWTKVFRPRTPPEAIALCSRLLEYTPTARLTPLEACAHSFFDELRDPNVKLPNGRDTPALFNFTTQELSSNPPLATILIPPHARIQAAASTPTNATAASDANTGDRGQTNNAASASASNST
The target of assay [2] is T1, Glycogen synthase kinase-3 beta. As to conditions: ReNcell VM, 3 uM.
Target sequence in this assay (P49841 whole entry, looked up): as above
Assay [3] deals with ReNcell VM. Kind of assay: Antiproliferative activity against human ReNcell VM cells assessed as reduction of cell proliferation at 3 uM after 72 hrs. It counts as functional, cell-based.
Assay [4] deals with T1, Glycogen synthase kinase-3 beta. Kind of assay: Inhibition of GSK3-beta after 30 mins by luminescence assay.
Target sequence in this assay (P49841 whole entry): as the sequence (P49841 whole entry, looked up) above
Assay [5] is described as follows: Antiproliferative activity against human ReNcell VM cells assessed as growth doubling time at 3 uM measured every 24 hrs. Format: functional.
Assay [6] in a line: Induction of neuronal differentiation in human ReNcell VM cells assessed as beta3-tubulin positive cells after 3 days by FACS analysis relative to control. Format: functional.
The target in assay [7] is T1, Glycogen synthase kinase-3 beta. As to conditions: ReNcell VM, 3 uM. This is another data set of the same source.
Target sequence in this assay (P49841 whole entry, looked up): as above
Description: Inhibition of GSK3-beta in human ReNcell VM cells assessed as residual activity at 3 uM after 2 hrs by immunoprecipitation analysis relative to control
For assay [8] the target is unchanged. Kind of assay: Inhibition of GSK-3-beta-mediated Wnt signaling in human ReNcell VM cells assessed as increase in accumulation of beta-catenin at 1 uM after 2 hrs by ELISA relative to control. (In general: ELISA stands for enzyme-linked immunosorbent assay.)
Target sequence in this assay (P49841 whole entry, looked up): as above
For assay [9] the target is unchanged. As to conditions: ReNcell VM, 3 uM. This is another data set of the same source.
Target sequence in this assay (P49841 whole entry, looked up): as above
Assay [10] has as its system ReNcell VM. The assay is described as follows: Cytotoxicity against human ReNcell VM cells assessed as cell viability at 3 uM after 72 hrs. Format: functional, cell-based.

pIC50: −log10 of the molar value. Calls of active or inactive are those of the source. The rule behind the calls is not given here.

One may read the inhibition as how much of the control response was suppressed. As to `Cc1[nH]c2ccccc2c1C1=C(N2CCCCC2)C(=O)N(C)C1=O`, the inhibition result in [1] is “inactive”. With `Cc1[nH]c2ccccc2c1C1=C(NCCc2ccccc2)C(=O)N(C)C1=O`, the inhibition result in assay [1] was “inactive”.

For `CCCCNC1=C(c2c(C)[nH]c3ccccc23)C(=O)N(C)C1=O`, the inhibition result in [1] was “inactive”. For the compound `Cc1[nH]c2ccccc2c1C1=C(NCCc2ccc(Cl)cc2)C(=O)N(C)C1=O`, the inhibition entry in [1] was “inactive”. Take `COc1ccc2[nH]cc(C3=C(NCCc4ccc(F)cc4)C(=O)N(C)C3=O)c2c1`: the inhibition result in assay [1] was “inactive”. Still for that read-out and setting: under `CCOC(=O)C1=C(c2c(C)[nH]c3ccccc23)C(=O)N(C)C1=O` stands “inactive”. The pIC50 is the IC50 on a negative log10 scale, so that one unit is a factor of ten. Lower therefore signals a large IC50. A word on the residual activity: it is the signal under treatment as a percentage of the control signal. A low value points to a large loss of activity. `Cc1[nH]c2ccccc2c1C1=C(NCCc2ccc(F)cc2)C(=O)N(C)C1=O`: the inhibition entry in [2] is “Active”. Also, the result with ReNcell VM [3] was Active. The same compound had a pIC50 in [4] of 7.28. In addition, the inhibition in assay [1] turned out to be 27%. In addition, the Time in [5] came to 26.5 h. The Activity in assay [6] is on record as 3.7%. The compound also returned a residual activity in assay [7] of 27%.

On to `Cc1[nH]c2ccccc2c1C1=C(N2CCN(c3ccccc3)CC2)C(=O)N(C)C1=O`, for which the inhibition result in assay [1] was “inactive”. In the case of `Cc1[nH]c2ccccc2c1C1=C(N2CCOCC2)C(=O)N(C)C1=O`, the inhibition entry in assay [1] was “inactive”.

For the compound `CCCCNC1=C(c2c(C)[nH]c3ccccc23)C(=O)N(CCCC)C1=O`, in [1], the inhibition entry is “inactive”. Turning to `COc1ccc(CCNC2=C(c3c(C)[nH]c4ccccc34)C(=O)N(C)C2=O)cc1`, the inhibition entry in assay [1] was “inactive”. The same measure, in the same setting: under `CN1C(=O)C(NCCc2ccc(F)cc2)=C(c2c[nH]c3ccccc23)C1=O` stands “inactive”. `Cc1[nH]c2ccccc2c1C1=C(NCCc2c[nH]c3ccccc23)C(=O)N(C)C1=O`: the inhibition entry in assay [1] is “inactive”. On to `O=C1Cc2c([nH]c3ccc(Br)cc23)-c2ccccc2N1`, for which, in assay [8], the inhibition was 30%.

As to `CCCCNC(=O)C1=C(c2c(C)[nH]c3ccccc23)C(=O)N(CCCC)C1=O`, in assay [1], the inhibition result is “inactive”. Consider `Cc1[nH]c2ccccc2c1C1=C(C(=O)N2CCOCC2)C(=O)N(C)C1=O`, for which the inhibition result in [1] is “inactive”. As to `Cc1[nH]c2ccccc2c1C1=C(NCCc2ccc(F)c(F)c2)C(=O)N(C)C1=O`, the inhibition entry in assay [1] was “inactive”. On the same count and under the same terms, under `Cc1[nH]c2ccccc2c1C1=C(C(=O)N2CCN(c3ccccc3)CC2)C(=O)N(C)C1=O` stands “inactive”. Regarding `CN1C(=O)C(NCCc2ccc(F)cc2)=C(c2c[nH]c3ccc(F)cc23)C1=O`, the inhibition result in assay [1] was “inactive”.

`CCCCNC(=O)C1=C(c2c(C)[nH]c3ccccc23)C(=O)N(C)C1=O`: in [1], the inhibition result was “inactive”.

Turning to `CCCCOC(=O)C1=C(c2c(C)[nH]c3ccccc23)C(=O)N(C)C1=O`, the inhibition entry in assay [1] was “inactive”.

Turning to `Cc1[nH]c2ccccc2c1C1=C(C(=O)N2CCCCC2)C(=O)N(C)C1=O`, in assay [1], the inhibition result was “inactive”. In the case of `Cn1cc(C2=C(c3ccc(Cl)cc3Cl)C(=O)NC2=O)c2ccccc21` [SB-216763], in [2], the inhibition result is “inactive”. Moreover, the outcome in the assay with ReNcell VM [3] was Active. Further, the values for the inhibition in assay [1] and in [9] were 50% and 55%, respectively. In addition, in assay [5], the Time was 24.4 h. Moreover, the values for the Activity (in assay [6]; with ReNcell VM [10]) were 3.2% and “Not toxic”, respectively. The residual activity in assay [7] is 22%. For `Cc1[nH]c2ccccc2c1C1=C(NCCc2ccc(O)cc2)C(=O)N(C)C1=O`, the inhibition entry in [1] is “inactive”.
